Assay results taken from ChEMBL document CHEMBL1132604, “Hypoxia-selective nitrobenzyloxycarbonyl derivatives of 1,2-bis(methylsulfonyl)-1-(2-chloroethyl)hydrazines” (1999).

What was measured:
Assay type in all cases: functional
Mus musculus [1] = test: Surviving fraction of compound on BALB/c mice bearing well established intradermal EMT6 solid tumors was measured by intraperitoneal injection on treatment with X-ray alone.
Mus musculus [2] = test: Surviving fraction of compound on BALB/c mice bearing well established intradermal EMT6 solid tumors was measured by intraperitoneal injection on treatment with drug and X-ray.
Mus musculus [3] = test: Surviving fraction of compound on BALB/c mice bearing well established intradermal EMT6 solid tumors was measured by intraperitoneal injection without any treatment.
Mus musculus [4] = test: Surviving fraction of compound on BALB/c mice bearing well established intradermal EMT6 solid tumors was measured by intraperitoneal injection on treatment with drug alone.
Mus musculus [5] = test: Surviving fraction of compound on BALB/c mice bearing well established intradermal EMT6 solid tumors was measured by intraperitoneal injection on treatment with X-ray.
Mus musculus [6] = test: Surviving fraction of compound on BALB/c mice bearing well established intradermal EMT6 solid tumors was measured by intraperitoneal injection on treatment with drug.

Compound	Surviving fraction (Mus musculus [1])	Surviving fraction (Mus musculus [2])	Surviving fraction (Mus musculus [3])	Surviving fraction (Mus musculus [4])	Surviving fraction (Mus musculus [5])	Surviving fraction (Mus musculus [6])
COc1cc(COC(=O)N(N(CCCl)S(C)(=O)=O)S(C)(=O)=O)c([N+](=O)[O-])cc1OC	0.043	0.024	1	0.856	–	–
CS(=O)(=O)N(CCCl)N(C(=O)OCc1ccc([N+](=O)[O-])cc1)S(C)(=O)=O	–	0.013	1	–	0.043	0.841
